Measurements: article PMC4678575 (MedChemComm, 2013)
Blank lines part the entries; values can stand above or below the compound they belong to.

Assays:
[1] = target: first bromodomain of BRD4 (BRD4(1)) (Homo sapiens, UniProt O60885); test: AlphaScreen peptide displacement assay, BRD4; type: binding; details: for inhibition of BRD4(1), in words: AlphaScreen using isolated bromodomains
CBP = CBP (Homo sapiens, UniProt Q92793); test: DSF thermal shift, CBP; type: binding
CBP bromodomain = CBP bromodomain (Homo sapiens, UniProt Q92793); test: AlphaScreen peptide displacement assay, CBP; type: binding; details: for affinity for the CBP bromodomain, in words: AlphaScreen using isolated bromodomains
Chain of CBP bromodomain (Q92793 1085-1192 limits assumed): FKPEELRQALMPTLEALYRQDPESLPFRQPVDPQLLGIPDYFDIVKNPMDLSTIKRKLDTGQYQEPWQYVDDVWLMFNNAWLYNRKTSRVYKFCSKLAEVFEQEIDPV

[2] = Re-examination of stock solutions by LCMS; type: physicochemical; details: mass loss of 18 amu, likely dehydration to indene 16

Chain of CBP (Q92793 1085-1192 limits assumed): as above

selectivity for BRD4(1) over CBP ([1]; AlphaScreen BRD4(1) vs CBP): at least 100 fold | stabilization of CBP, in words (CBP): only minimal stabilization
SMILES: Cc1noc(C)c1-c1ccc2ncn(Cc3ccc(C#N)cc3)c2c1 [Compound 28a]

inhibition of BRD4(1), in words [1]: modest inhibitors | affinity for the CBP bromodomain, in words (CBP bromodomain): no affinity
SMILES: Cc1noc(C)c1-c1ccc2c(c1)C(=O)CC2 [Compound 6]

chemical stability of stock solutions, in words [2]: decomposition of the parent compound
SMILES: Cc1noc(C)c1-c1ccc2c(c1)C(O)(c1ccccc1)CC2 (stereo not drawn) [Compound 15]

SMILES: Cc1noc(C)c1-c1ccc2nc[nH]c2c1 [Compound 8]
affinity/potency for BRD4(1) compared with CBP, in words ([1]; AlphaScreen): comparable affinity for both bromodomains

IC50 (CBP bromodomain): > 10 µM
SMILES: Cc1noc(C)c1-c1ccc2c(c1)C(OCc1ccccc1)CC2 (stereo not drawn) [Compound 9]

inhibition of BRD4(1), in words [1]: modest inhibitors | affinity for the CBP bromodomain, in words (CBP bromodomain): no affinity
SMILES: Cc1noc(C)c1-c1ccc2cc[nH]c2c1 [Compound 7]
